From PMC6003700 (European journal of medicinal chemistry, 2018)
Square brackets hold non-standard residues; d marks the D form. Peptide text beside a SMILES is read from it. dPhe(4-CF3) = N[C@H](Cc1ccc(C(F)(F)F)cc1)C(=O)O; Nle = CCCC[C@H](N)C(=O)O

Key:
MC3R Asp158Ala mutation = conditions: MC3R mutant versus wild type; cited from earlier work
[1] = tested on: hMC1R Asp117Ala and Asp121Ala mutants; conditions: hMC1R mutants versus wild type; cited from earlier work
[2] = tested on: hMC1R Asp117Ala and Asp121Ala mutants; conditions: hMC1R mutants versus wild type; cited from earlier work; remark: listed apart in the source
hMC1R = hMC1R (Homo sapiens, UniProt Q01726); experiment: cAMP accumulation, HEK293 cells expressing hMC1R; type: cell-based; conditions: hMC1R agonist EC50 versus other melanocortin receptors
Chain of hMC1R (Q01726 whole entry): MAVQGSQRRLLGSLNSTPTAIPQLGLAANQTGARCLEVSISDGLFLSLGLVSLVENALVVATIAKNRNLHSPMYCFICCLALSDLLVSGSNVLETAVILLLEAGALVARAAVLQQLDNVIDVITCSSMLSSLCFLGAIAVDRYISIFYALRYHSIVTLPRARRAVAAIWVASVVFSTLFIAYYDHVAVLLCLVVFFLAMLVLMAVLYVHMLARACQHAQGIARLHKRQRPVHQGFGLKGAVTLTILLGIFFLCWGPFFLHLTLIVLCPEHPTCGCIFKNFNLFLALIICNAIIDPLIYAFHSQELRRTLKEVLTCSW

| Molecule | increase for the EC50 value, Asp158Ala mutation (MC3R Asp158Ala mutation) | increase on the IC50 value for the Asp117Ala and Asp121Ala mutants [1] | increase on the EC50 value for the Asp117Ala and Asp121Ala mutants [2] | hMC1R selectivity to other MCR subtypes (hMC1R) |
| --- | --- | --- | --- | --- |
| NDP-α-MSH | more than 350 fold | around 10 fold | around 10 fold |  |
| CCCC[C@H](NC(=O)[C@@H](Cc1ccc(C(F)(F)F)cc1)NC(=O)[C@H](Cc1cnc[nH]1)NC(C)=O)C(=O)N[C@@H](Cc1c[nH]c2ccccc12)C(N)=O [Peptide 5, Ac-His-DPhe(4-CF3)-Nle-Trp-NH2] (Ac-H[dPhe(4-CF3)][Nle]W-NH2) |  |  |  | at least 25 fold |
